According to patent US7205305B2, “Inhibitors of p38” (Vertex Pharmaceuticals Incorporated, priority 1996, dated 2007):
Like-named read-outs stand apart in the source and are kept apart here.

Experiments:
[1] = test system: IL-1 production in LPS-stimulated PBMCs; assay: Inhibition of IL-1 production in LPS-stimulated PBMCs ("cell"); format: cell-based, human
Outline: (§1)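 Human PBMCs (4.8×10^6 cells/ml, RPMI1640/10% FBS) pre-treated with inhibitor dilutions, then stimulated with 4 ng/ml LPS final and incubated overnight (12–15 h) at 37 °C/5% CO2. Supernatant IL-1β and TNF-α measured by ELISA; IC50 from dose-response curves.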

[2] = test system: TNF production in LPS-stimulated PBMCs; assay: Inhibition of TNF production in LPS-stimulated PBMCs ("cell"); format: cell-based, human
Outline: as §1

[3] = test system: IL-1 production in whole blood; assay: Inhibition of IL-1 production in LPS-stimulated whole blood ("WB"); format: cell-based, human
Procedure: (§2) Inhibitors were serially diluted in DMSO from a 20 mM stock. At least 6 serial dilutions were prepared. Then 4× inhibitor stocks were prepared by adding 4 μl of an inhibitor dilution to 1 ml of RPMI1640 medium/10% fetal bovine serum. The 4× inhibitor stocks contained inhibitor at concentrations of 80 μM, 32 μM, 12.8 μM, 5.12 μM, 2.048 μM, 0.819 μM, 0.328 μM, 0.131 μM, 0.052 μM, 0.021 μM etc. The 4× inhibitor stocks were pre-warmed at 37° C. until use.
(§3) Alternatively, whole blood containing an anti-coagulant was used directly in the assay.
(§4) We placed 100 μl of cell suspension or whole blood in each well of a 96-well cell culture plate. Then we added 50 μl of the 4× inhibitor stock to the cells. Finally, we added 50 μl of a lipopolysaccharide (LPS) working stock solution (16 ng/ml in cell culture medium) to give a final concentration of 4 ng/ml LPS in the assay. The total assay volume of the vehicle control was also adjusted to 200 μl by adding 50 μl cell culture medium. The PBMC cells or whole blood were then incubated overnight (for 12–15 hours) at 37° C./5% CO2 in a humidified atmosphere.
(§5) The next day the cells were mixed on a shaker for 3–5 minutes before centrifugation at 500×g for 5 minutes. Cell culture supernatants were harvested and analyzed by ELISA for levels of IL-1b (R & D Systems, Quantikine kits, #DBL50), TNF-α (BioSource, #KHC3012), IL-6 (Endogen, #EH2-IL6) and IL-8 (Endogen, #EH2-IL8) according to the instructions of the manufacturer. The ELISA data were used to generate dose-response curves from which IC50 values were derived.

activated p38 = activated p38 (Homo sapiens, UniProt Q16539); assay: Inhibition of phosphorylation of EGF receptor peptide ("kinase"); format: biochemical; settings: inhibition of phosphorylation of EGF receptor peptide by activated p38
activated p38, sequence (Q16539 whole entry): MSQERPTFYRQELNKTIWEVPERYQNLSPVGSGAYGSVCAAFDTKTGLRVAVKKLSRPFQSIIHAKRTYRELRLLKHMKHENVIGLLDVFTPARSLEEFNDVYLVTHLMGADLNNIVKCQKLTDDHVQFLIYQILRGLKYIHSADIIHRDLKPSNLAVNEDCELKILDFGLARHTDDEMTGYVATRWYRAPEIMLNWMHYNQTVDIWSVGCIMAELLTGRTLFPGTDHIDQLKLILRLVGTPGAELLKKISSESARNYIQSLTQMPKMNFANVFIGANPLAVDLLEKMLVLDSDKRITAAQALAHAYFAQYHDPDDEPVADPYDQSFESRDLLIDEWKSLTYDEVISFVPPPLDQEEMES
Outline: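 Activated p38 was preincubated with inhibitor for 15 min at room temperature in 100 mM HEPES pH 7.6, 10 mM MgCl2, 25 mM β-glycerophosphate, 10% glycerol, 5% DMSO final. Reaction used 200 μM EGF receptor peptide and 100 μM ATP for 30 min at 30° C. TFA-quenched phosphopeptide was quantified by reverse-phase HPLC.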

[4] = test system: TNF production in whole blood; assay: Inhibition of TNF production in LPS-stimulated whole blood ("WB"); format: cell-based, human
Procedure: as §2, §3, §4, §5

[5] = test system: IL-6 production in whole blood; assay: Inhibition of IL-6 production in LPS-stimulated whole blood ("WB"); format: cell-based, human
Procedure: as §2, §3, §4, §5

SMILES | IC50 ([1]; Homo sapiens, PBMC) [µM] | IC50 ([2]; Homo sapiens, PBMC) [µM] | IC50 ([3]; Homo sapiens) [µM] | IC50 (activated p38) [µM] | IC50 ([4]; Homo sapiens) [µM] | IC50 ([5]; Homo sapiens) [µM] | IC50 [1] [µM] | IC50 [2] [µM] | IC50 [3] [µM] | IC50 [4] [µM] | IC50 [5] [µM]
O=C1NCN2N=C(Sc3ccc(F)cc3)C=CC2=C1c1cc2c(cc1Cl)OCO2 [Compound 129] | ≤ 0.1 | ≤ 0.1 | 0.25 to 0.5 | ≤ 0.1 | ≥ 0.5 | 0.25 to 0.5 | – | – | – | – | –
COc1cc(Cl)c(C2=C3C=CC(Sc4ccc(F)cc4)=NN3CNC2=O)cc1O [Compound 135] | 0.1 to 0.5 | ≥ 0.5 | ≥ 0.5 | ≤ 0.1 | ≥ 0.5 | ≥ 0.5 | – | – | – | – | –
O=C1NCN2N=C(Sc3ccc(F)cc3Cl)C=CC2=C1c1cc2c(cc1Cl)OCO2 [Compound 136] | ≤ 0.1 | ≤ 0.1 | ≥ 0.5 | ≤ 0.1 | ≥ 0.5 | 0.25 to 0.5 | – | – | – | – | –
Nc1ccc(C2=C3C=CC(Sc4ccc(F)cc4)=NN3CNC2=O)c(Cl)c1 [Compound 137] | ≤ 0.1 | 0.1 to 0.5 | ≥ 0.5 | ≤ 0.1 | ≥ 0.5 | 0.25 to 0.5 | – | – | – | – | –
O=C1C(c2c(Cl)cccc2Cl)=C2C=CC(Sc3ccc(F)cc3)=NN2CN1CO [Compound 138] | ≤ 0.1 | 0.1 to 0.5 | ≥ 0.5 | 0.1 to 1 | ≥ 0.5 | ≤ 0.25 | – | – | – | – | –
COc1ccc(C2=C3C=CC(Sc4ccc(F)cc4)=NN3CNC2=O)c(Cl)c1 [Compound 139] | ≤ 0.1 | ≥ 0.5 | ≥ 0.5 | ≤ 0.1 | ≥ 0.5 | ≥ 0.5 | – | – | – | – | –
CN(C)/C=N\c1ccc(C2=C3C=CC(Sc4ccc(F)cc4Cl)=NN3CNC2=O)c(Cl)c1 [Compound 140] | ≤ 0.1 | ≤ 0.1 | 0.25 to 0.5 | ≤ 0.1 | ≥ 0.5 | 0.25 to 0.5 | – | – | – | – | –
O=C(CCl)Nc1ccc(C2=C3C=CC(Sc4ccc(F)cc4)=NN3CNC2=O)c(Cl)c1 [Compound 141] | ≤ 0.1 | ≤ 0.1 | ≥ 0.5 | ≤ 0.1 | ≥ 0.5 | ≥ 0.5 | – | – | – | – | –
CC(=O)Nc1ccc(C2=C3C=CC(Sc4ccc(F)cc4)=NN3CNC2=O)c(Cl)c1 [Compound 143] | ≤ 0.1 | 0.1 to 0.5 | ≥ 0.5 | ≤ 0.1 | ≥ 0.5 | ≥ 0.5 | – | – | – | – | –
O=C(CN1CCOCC1)Nc1ccc(C2=C3C=CC(Sc4ccc(F)cc4)=NN3CNC2=O)c(Cl)c1 [Compound 144] | ≤ 0.1 | 0.1 to 0.5 | ≥ 0.5 | ≤ 0.1 | ≥ 0.5 | 0.25 to 0.5 | – | – | – | – | –
O=C1NCN2N=C(Sc3ccc(F)cc3Cl)C=CC2=C1c1cc2c(cc1Cl)OCO2 [Compound 145] | – | – | – | ≤ 0.1 | – | – | ≤ 0.1 | ≤ 0.1 | ≤ 0.25 | ≤ 0.25 | ≤ 0.25
NC(=O)C(c1ccc(Sc2ccccc2)cn1)c1c(Cl)cccc1Cl (stereo not drawn) [Compound 201] | ≥ 0.5 | ≥ 0.5 | ≥ 0.5 | 0.1 to 1 | ≤ 0.25 | ≥ 0.5 | – | – | – | – | –
NC(=O)C(c1cccc(-c2ccccc2CO)n1)c1c(Cl)cccc1Cl (stereo not drawn) [Compound 302] | ≤ 0.1 | 0.1 to 0.5 | ≥ 0.5 | ≤ 0.1 | ≥ 0.5 | ≥ 0.5 | – | – | – | – | –
CNCc1ccccc1-c1cccc(C(C(N)=O)c2c(Cl)cccc2Cl)n1 (stereo not drawn) [Compound 303] | ≥ 0.5 | ≥ 0.5 | ≥ 0.5 | ≥ 1 | ≥ 0.5 | ≥ 0.5 | – | – | – | – | –
NC(=O)C(c1cccc(-c2ccccc2CN2CCNCC2)n1)c1c(Cl)cccc1Cl (stereo not drawn) [Compound 304] | ≥ 0.5 | ≥ 0.5 | ≥ 0.5 | ≥ 1 | ≥ 0.5 | ≥ 0.5 | – | – | – | – | –
Cc1ccccc1-c1cccc(C(C(N)=O)c2c(Cl)cccc2Cl)n1 (stereo not drawn) [Compound 305] | ≤ 0.1 | ≥ 0.5 | ≥ 0.5 | ≤ 0.1 | ≥ 0.5 | ≥ 0.5 | – | – | – | – | –
